According to patent EP4763839A1 (Pamplona Therapeutics (Shenzhen) Co., Ltd., priority 2023, dated 2025):
Where a name gives a salt, the structure may show the parent alone. Read-outs that look alike come from different tables or passages of the source.

Molecular target: T1, IRAK4 (Homo sapiens, UniProt Q9NWZ3)
T1 sequence (Q9NWZ3 1-460): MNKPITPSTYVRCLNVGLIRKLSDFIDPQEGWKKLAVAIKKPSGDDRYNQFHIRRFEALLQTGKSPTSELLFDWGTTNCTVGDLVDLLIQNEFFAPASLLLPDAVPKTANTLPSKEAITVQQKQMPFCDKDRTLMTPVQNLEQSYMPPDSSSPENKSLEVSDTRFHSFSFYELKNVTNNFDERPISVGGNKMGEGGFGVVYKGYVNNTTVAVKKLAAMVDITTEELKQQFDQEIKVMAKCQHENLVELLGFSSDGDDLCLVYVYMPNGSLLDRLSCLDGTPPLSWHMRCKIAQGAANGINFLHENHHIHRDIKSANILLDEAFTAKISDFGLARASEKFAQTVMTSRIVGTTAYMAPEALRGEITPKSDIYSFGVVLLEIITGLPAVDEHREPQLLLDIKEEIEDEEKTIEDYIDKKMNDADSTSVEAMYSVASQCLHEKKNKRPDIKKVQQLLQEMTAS
Test: Degradation of IRAK4 in THP1 cells, Western blot
Format: cell-based
Set-up: Degradation of IRAK4 in THP1 by compound; host or cells: THP-1
Protocol: After 24 hours of incubation, the cells were collected into 1.5 mL centrifuge tubes and centrifuged at 1,000 rpm for 5 minutes. […] The supernatants were collected, and the IRAK4 protein levels were respectively detected by Western blot (WB). The total protein concentration in the cell lysate supernatant was determined using a BCA protein quantification kit (NCM). Based on the total protein concentration detected by BCA, the samples were adjusted to 2 μg/μL using cell lysis buffer and 5×SDS-PAGE protein loading buffer (Beyotime), heated at 95°C for 5 minutes in a metal bath, and then placed on ice for an ice bath for 5 minutes before being used as the loading samples for Western blot analysis. Protein electrophoresis was performed using a 10% SDS-PAGE gel with a loading volume of 20 μL (total protein 40 μg) and Tris-SDS electrophoresis at a constant voltage of 80 V. After electrophoresis, the proteins on the gel were transferred to a 0.2 μm PVDF membrane (Immobilon) using a semi-dry transfer method at 0.5 A and 20 V for 60 minutes. After transfer, the membrane was placed in 5% skimmed milk and incubated at rt for 2 hours. After blocking, the PVDF membrane was incubated with primary antibody against IRAK4 (Abcam) at 4°C overnight. […] The color development and protein band imaging were performed using a chemiluminescence imaging system ([…] Technology Co., Ltd.). The protein bands were analyzed for grayscale values using Image J analysis software. The corrected grayscale values for each sample were calculated and then compared with those of the control group treated with DMSO alone to calculate the degradation rate.

[1] = THP-1 cells, 24 hours of incubation, IRAK4 protein by Western blot, read-out: DC50
[2] = maximum degradation rate, THP-1 cells, 24 hours of incubation, read-out: Dmax

| Structure (SMILES) | DC50 [1] [nM] | Dmax [2] [%] | DC50 [nM] | Dmax (THP-1) [%] | Dmax (maximum degradation rate, THP-1 cells, 24 hours of incubation) |
| --- | --- | --- | --- | --- | --- |
| Cn1c(-c2ccc(N3CCC(CCN4CCN(c5ccc(-n6cc(NC(=O)c7cccc(C(F)(F)F)n7)c(C(N)=O)n6)cc5)CC4)C3)cc2)nn(C2CCC(=O)NC2=O)c1=O (stereo not drawn) [Compound A185] | < 100 | 40 to 60 | – | – | – |
| Cn1c(=O)n(C2CCC(=O)NC2=O)c2cccc(N3CCC(CN4CCN(c5ccc(-n6cc(NC(=O)c7cccc(C(F)(F)F)n7)c(C(N)=O)n6)cc5)CC4)C(F)(F)C3)c21 (stereo not drawn) [Compound A298, N-(3-Carbamoyl-1-(4-(4-((1-(1-(2,6-dioxopiperidin-3-yl)-3-methyl-2-oxo-2,3-dihydro-1H-benzo[d]imidazol-4-yl)-3,3-difluoropiperidin-4-yl)methyl)piperazin-1-yl)phenyl)-1H-pyrazol-4-yl)-6-(trifluoromethyl)picolinamide] | < 100 | > 60 | – | – | – |
| Cn1c(=O)n(C2CCC(=O)NC2=O)c2ccc(N3CCC(CN4CCN(c5ccc(-n6cc(NC(=O)c7cccc(C(F)(F)F)n7)c(C(N)=O)n6)cc5)CC4)C(F)(F)C3)cc21 (stereo not drawn) [Compound A299, N-(3-Carbamoyl-1-(4-(4-((1-(1-(2,6-dioxopiperidin-3-yl)-3-methyl-2-oxo-2,3-dihydro-1H-benzo[d]imidazol-5-yl)-3,3-difluoropiperidin-4-yl)methyl)piperazin-1-yl)phenyl)-1H-pyrazol-4-yl)-6-(trifluoromethyl)picolinamide] | < 100 | > 60 | – | – | – |
| Cn1c(=O)n(C2CCC(=O)NC2=O)c2cccc(N3CCC(CCN4CCN(c5ccc(-n6cc(NC(=O)c7cccc(C(F)(F)F)n7)c(C(N)=O)n6)cc5)CC4)C(F)(F)C3)c21 (stereo not drawn) [Compound A300] | – | – | < 100 | > 60 | – |
| Cn1c(=O)n(C2CCC(=O)NC2=O)c2ccc(N3CCC(CN4CCN(c5ccc(-n6cc(NC(=O)c7cccc(C(F)(F)F)n7)c(C(N)=O)n6)cc5)CC4)C3)cc21 (stereo not drawn) [Compound A304, N-(3-carbamoyl-1-(4-(4-((1-(1-(2,6-dioxopiperidin-3-yl)-3-methyl-2-oxo-2,3-dihydro-1H-benzo[d]imidazol-5-yl)pyrrolidin-3-yl)methyl)piperazin-1-yl)phenyl)-1H-pyrazol-4-yl)-6-(trifluoromethyl)picolinamide] | < 100 | 40 to 60 | – | – | – |
| COc1ccc(C(=O)N2CCC(CN3CCN(C(=O)c4ccc(-n5cc(NC(=O)c6cccc(C(F)(F)F)n6)c(C(N)=O)n5)cc4)CC3)C2)cc1N1CCC(=O)NC1=O (stereo not drawn) [Compound A313, N-(3-carbamoyl-1-(4-((1-(3-(2,4-dioxotetrahydropyrimidin-1(2H)yl)-4-methoxybenzoyl)pyrrolidin-3-yl)methyl)piperazine-1-carbonyl)phenyl)-1H-pyrazol-4-yl)-6-(trifluoromethyl)picolinamide trifluoroacetate] | 100 to 1000 | > 60 | – | – | – |
| CN(Cc1ccc(-n2cc(NC(=O)c3cccc(C(F)(F)F)n3)c(C(N)=O)n2)cc1)C1CC2(CCN(c3cccc4c3n(C)c(=O)n4C3CCC(=O)NC3)CC2)C1 (stereo not drawn) [Compound A315] | 100 to 1000 | – | – | – | A (A represents Dmax > 60%) |
| Cn1c(=O)n(C2CCC(=O)NC2=O)c2cccc(N3CCC4(CC3)CC(NC(=O)c3ccc(-n5cc(NC(=O)c6cccc(C(F)(F)F)n6)c(C(N)=O)n5)cc3)C4)c21 (stereo not drawn) [Compound A320] | < 100 | > 60 | – | – | – |
| COc1ccc(C(=O)N2CCC(CCN3CCN(c4ccc(-n5cc(NC(=O)c6cccc(-c7ccn[nH]7)n6)c(S(N)(=O)=O)n5)cc4)CC3)CC2)cc1N1CCC(=O)NC1=O [Compound A324] | < 100 | > 60 | – | – | – |
| Cn1c(=O)n(C2CCC(=O)NC2=O)c2ccc(N3CCC(CN4CCN(c5ccc(-n6cc(NC(=O)c7cccc(-c8ccn[nH]8)n7)c(S(N)(=O)=O)n6)cc5)CC4)CC3)cc21 (stereo not drawn) [Compound A326, N-[3-(aminodioxyylidene-λ6-thio)-1-{4-[4-({1-[1-(2,6-dioxopiperidin-3-yl)-3-methyl-2-oxobenzo[d]imidazol-5-yl]piperidin-4-yl}methyl)piperazin-1-yl]phenyl}pyrazol-4-yl]-6-(2H-pyrazol-3-yl)pyridine-2-carboxamide] | < 100 | > 60 | – | – | – |

More lines, main results first:

| DC50 [1] [nM] | Dmax [2] [%] | Structure (SMILES) | DC50 [nM] | Dmax (THP-1) [%] | Dmax (maximum degradation rate, THP-1 cells, 24 hours of incubation) |
| --- | --- | --- | --- | --- | --- |
| 100 to 1000 | 40 to 60 | Cn1c(=O)n(C2CCC(=O)NC2=O)c2cccc(N3CCC(CN4CCN(c5ccc(-n6cc(NC(=O)c7cccc(C(F)(F)F)n7)c(C(N)=O)n6)cc5)CC4)C3)c21 (stereo not drawn) [Compound A305, N-(3-carbamoyl-1-(4-(4-((1-(1-(2,6-dioxopiperidin-3-yl)-3-methyl-2-oxo-2,3-dihydro-1H-benzo[d]imidazol-4-yl)pyrrolidin-3-yl)methyl)piperazin-1-yl)phenyl)-1H-pyrazol-4-yl)-6-(trifluoromethyl)picolinamide] | – | – | – |
| < 100 | > 60 | Cn1c(=O)n(C2CCC(=O)NC2=O)c2cccc(N3CCC4(CC3)CN(CCc3ccc(-n5cc(NC(=O)c6cccc(C(F)(F)F)n6)c(C(N)=O)n5)cc3)C4)c21 (stereo not drawn) [Compound A316, N-(3-carbamoyl-1-(4-(2-(7-(1-(2,6-dioxopiperidin-3-yl)-3-methyl-2-oxo-2,3-dihydro-1H-benzo[d]imidazol-4-yl)-2,7-diazaspiro[3.5]nonan-2-yl)ethyl)phenyl)-1H-pyrazol-4-yl)-6-(trifluoromethyl)picolinamide] | – | – | – |
| < 100 | > 60 | NC(=O)c1nn(-c2ccc(COC3CC4(CCN(CC5CCN(c6ccc(NC7CCC(=O)NC7=O)cc6F)CC5)CC4)C3)cc2)cc1NC(=O)c1cccc(C(F)(F)F)n1 (stereo not drawn) [Compound A317, N-(3-Carbamoyl-1-(4-(((7-((1-(4-((2,6-dioxopiperidin-3-yl)amino)-2-fluorophenyl)piperidin-4-yl)methyl)-7-azaspiro[3.5]nonan-2-yl)oxy)methyl)phenyl)-1H-pyrazol-4-yl)-6-(trifluoromethyl)picolinamide] | – | – | – |
| < 100 | > 60 | COc1ccc(C(=O)N2CCC3(CC2)CC(Cc2ccc(-n4cc(NC(=O)c5cccc(C(F)(F)F)n5)c(C(N)=O)n4)cc2)C3)cc1N1CCC(=O)NC1=O [Compound A318, N-(3-Carbamoyl-1-(4-((7-(3-(2,4-dioxotetrahydropyrimidin-1(2H)-yl)-4-methoxybenzoyl)-7-azaspiro[3.5]nonan-2-yl)methyl)phenyl)-1H-pyrazol-4-yl)-6-(trifluoromethyl)picolinamide] | – | – | – |
| 100 to 1000 | 40 to 60 | Cn1c(=O)n(C2CCC(=O)NC2=O)c2cccc(N3CCC4(CC3)CN(Cc3ccc(-n5cc(NC(=O)c6cccc(C(F)(F)F)n6)c(C(N)=O)n5)cc3)C4)c21 (stereo not drawn) [Compound A319, N-(3-carbamoyl-1-(4-((7-(1-(2,6-dioxopiperidin-3-yl)-3-methyl-2-oxo-2,3-dihydro-1H-benzo [d]imidazol-4-yl)-2,7-diazaspiro[3.5]nonan-2-yl)methyl)phenyl)-1H-pyrazol-4-yl)-6-(trifluoromethyl)picolinamide] | – | – | – |
| < 100 | > 60 | Cn1c(=O)n(C2CCC(=O)NC2=O)c2cccc(N3CCC4(CC3)CN(C(=O)Cc3ccc(-n5cc(NC(=O)c6cccc(C(F)(F)F)n6)c(C(N)=O)n5)cc3)C4)c21 (stereo not drawn) [Compound A321, N-(3-Carbamoyl-1-(4-(2-(7-(1-(2,6-dioxopiperidin-3-yl)-3-methyl-2-oxo-2,3-dihydro-1H-benzimidazol-4-yl)-2,7-diazaspiro[3.5]nonan-2-yl)-2-oxoethyl)phenyl)-1H-pyrazol-4-yl)-6-(trifluoromethyl)picolinamide] | – | – | – |
| < 100 | > 60 | Cn1c(=O)n(C2CCC(=O)NC2=O)c2cccc(N3CCC4(CC3)CC(NCc3ccc(-n5cc(NC(=O)c6cccc(-c7ccn[nH]7)n6)c(S(N)(=O)=O)n5)cc3)C4)c21 (stereo not drawn) [Compound A322, N-(1-(4-(((7-(1-(2,6-dioxopiperidin-3-yl)-3-methyl-2-oxo-2,3-dihydro-1H-benzo[d]imidazol-4-yl)-7-azaspiro[3.5]nonan-2-yl)amino)methyl)phenyl)-3-sulfamoyl-1H-pyrazol-4-yl)-6-(1H-pyrazol-5-yl)picolinamide] | – | – | – |
| < 100 | > 60 | NS(=O)(=O)c1nn(-c2ccc(N3CCN(CC4CCN(c5ccc(NC6CCC(=O)NC6=O)cc5F)CC4)CC3)cc2)cc1NC(=O)c1cccc(-c2ccn[nH]2)n1 (stereo not drawn) [Compound A325, N-(1-(4-(4-((1-(-4-((2,6-dioxopiperidin-3-yl)amino)-2-fluorophenyl)piperidin-4-yl)methyl)piperazin-1-yl)phenyl)-3-sulfamoyl-1H-pyrazol-4-yl)-6-(1H-pyrazol-5-yl)picolinamide] | – | – | – |
